Results from ChEMBL document CHEMBL4118120, “Identification of a novel selective small-molecule inhibitor of protein arginine methyltransferase 5 (PRMT5) by virtual screening, resynthesis and biological evaluations” (Bioorg Med Chem Lett, 2018).
The source made the active and inactive calls. The calls are words filed in the database; no cut-off is given here.

Legend:
[1] = molecular target: T1, PRMT5/MEP50 complex (Homo sapiens) (UniProt O14744+Q9BQA1); assay: (§1) Inhibition of recombinant human N-terminal FLAG-tagged PRMT5 (2 to end residues) /human N-terminal His-tagged MEP50 (2 to end residues) expressed in HEK293F cells at 50 uM using substrate pretreated for 15 mins followed by substrate and [3H]-SAM addition measured after 60 mins by scintillation proximity assay relative to control; format: cell-based
PRMT5/MEP50 complex [2] = molecular target: T2, PRMT5/MEP50 complex (Homo sapiens, UniProt O14744); assay: Inhibition of recombinant human N-terminal FLAG-tagged PRMT5 (2 to end residues) /human N-terminal His-tagged MEP50 (2 to end residues) expressed in HEK293F cells using biotinylated H4 derived peptide as substrate pretreated for 15 mins followed by substrate and [3H]-SAM addition measured after 60 mins by liquid scintillation counting method
T2 sequence (O14744 whole entry): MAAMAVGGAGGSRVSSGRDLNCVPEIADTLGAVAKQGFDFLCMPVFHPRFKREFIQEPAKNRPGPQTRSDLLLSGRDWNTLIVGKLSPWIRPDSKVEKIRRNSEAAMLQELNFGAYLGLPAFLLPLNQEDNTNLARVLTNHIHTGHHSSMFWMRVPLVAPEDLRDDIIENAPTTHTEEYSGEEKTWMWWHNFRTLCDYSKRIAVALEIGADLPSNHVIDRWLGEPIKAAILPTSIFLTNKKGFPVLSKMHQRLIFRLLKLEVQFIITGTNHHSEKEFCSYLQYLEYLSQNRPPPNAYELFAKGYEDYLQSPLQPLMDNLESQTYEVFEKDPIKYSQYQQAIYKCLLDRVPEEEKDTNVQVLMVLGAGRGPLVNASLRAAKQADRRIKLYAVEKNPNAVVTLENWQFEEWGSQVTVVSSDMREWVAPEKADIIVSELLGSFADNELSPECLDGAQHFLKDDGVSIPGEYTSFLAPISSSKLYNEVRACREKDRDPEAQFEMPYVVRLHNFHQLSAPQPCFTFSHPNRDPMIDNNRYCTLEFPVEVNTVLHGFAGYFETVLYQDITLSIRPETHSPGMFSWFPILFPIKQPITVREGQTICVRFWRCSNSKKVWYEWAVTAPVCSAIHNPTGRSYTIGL
T2 sequence (Q9BQA1 whole entry, further chain): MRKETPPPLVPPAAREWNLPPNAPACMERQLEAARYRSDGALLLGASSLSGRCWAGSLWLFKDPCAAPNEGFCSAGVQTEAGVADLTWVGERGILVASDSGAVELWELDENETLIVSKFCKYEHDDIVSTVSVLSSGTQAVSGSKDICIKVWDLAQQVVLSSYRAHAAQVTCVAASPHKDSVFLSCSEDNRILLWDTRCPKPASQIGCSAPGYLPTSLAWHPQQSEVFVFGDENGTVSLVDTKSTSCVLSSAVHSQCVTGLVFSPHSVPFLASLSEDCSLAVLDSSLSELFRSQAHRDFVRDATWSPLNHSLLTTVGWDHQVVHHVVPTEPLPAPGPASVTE

PRMT5/MEP50 complex [3] = molecular target: T2, PRMT5/MEP50 complex; assay: as §1, with “cells” for “cells at 50 uM”, “assay” for “assay relative to control”; format: cell-based
[4] = molecular target: T1, PRMT5/MEP50 complex (Homo sapiens); assay: as §1, with “at 100” for “at 50”; format: cell-based
PRMT5/MEP50 complex [5] = molecular target: T2, PRMT5/MEP50 complex; assay: Inhibition of recombinant human N-terminal FLAG-tagged PRMT5 (2 to end residues) /human N-terminal His-tagged MEP50 (2 to end residues) expressed in HEK293F cells using substrate measured after 60 mins by Alphalisa assay; format: cell-based
[6] = molecular target: Protein arginine N-methyltransferase 1 (Homo sapiens, UniProt Q99873); assay: Inhibition of recombinant human N-terminal GST-tagged PRMT1 (2 to end residues) expressed in baculovirus infected Sf9 insect cells using peptide substrate pretreated for 15 mins followed by substrate/[3H]-SAM addition measured after 60 mins by scintillation proximity assay
Sequence of Protein arginine N-methyltransferase 1 (Q99873 whole entry): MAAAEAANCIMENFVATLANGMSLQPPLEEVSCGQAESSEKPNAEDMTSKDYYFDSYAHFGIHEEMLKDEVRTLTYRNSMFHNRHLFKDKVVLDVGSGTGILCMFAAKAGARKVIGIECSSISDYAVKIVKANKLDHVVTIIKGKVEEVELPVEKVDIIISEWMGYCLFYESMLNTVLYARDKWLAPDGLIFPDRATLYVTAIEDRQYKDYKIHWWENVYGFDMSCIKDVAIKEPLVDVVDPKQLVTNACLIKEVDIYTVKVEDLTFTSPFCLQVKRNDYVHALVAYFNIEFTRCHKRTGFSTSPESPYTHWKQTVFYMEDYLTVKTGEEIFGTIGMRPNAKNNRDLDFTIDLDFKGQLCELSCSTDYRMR

[7] = molecular target: T3, Histone-arginine methyltransferase CARM1 (Homo sapiens, UniProt Q86X55); assay: Inhibition of recombinant human N-terminal FLAG-tagged CARM1 (2 to end residues) expressed in HEK293F cells pretreated for 15 mins followed by substrate addition measured after 60 mins by Alphalisa assay; format: cell-based
T3 sequence (Q86X55 whole entry): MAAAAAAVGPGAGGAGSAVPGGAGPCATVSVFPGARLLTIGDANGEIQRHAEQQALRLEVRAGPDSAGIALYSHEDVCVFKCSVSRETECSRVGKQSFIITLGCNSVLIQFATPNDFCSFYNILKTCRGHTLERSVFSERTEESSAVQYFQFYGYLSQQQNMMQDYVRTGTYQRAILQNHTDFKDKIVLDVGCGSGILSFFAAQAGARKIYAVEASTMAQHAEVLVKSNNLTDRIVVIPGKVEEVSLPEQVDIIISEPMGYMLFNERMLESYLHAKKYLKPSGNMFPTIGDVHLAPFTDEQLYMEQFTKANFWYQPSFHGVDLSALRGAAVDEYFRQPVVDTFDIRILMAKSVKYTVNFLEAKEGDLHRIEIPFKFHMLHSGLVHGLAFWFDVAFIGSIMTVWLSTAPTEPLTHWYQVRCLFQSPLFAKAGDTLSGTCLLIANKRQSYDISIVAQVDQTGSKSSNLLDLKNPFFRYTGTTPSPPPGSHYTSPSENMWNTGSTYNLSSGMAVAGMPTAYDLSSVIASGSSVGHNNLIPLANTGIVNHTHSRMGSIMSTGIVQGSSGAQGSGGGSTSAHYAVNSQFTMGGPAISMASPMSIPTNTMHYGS

MV4-11 = assay: Antiproliferative activity against human MV411 cells after 4 days by Celltiiter-Glo luminescence cell viability assay; conditions: MV4-11, 96 h
[8] = molecular target: Protein arginine N-methyltransferase 5 (Homo sapiens) (UniProt O14744); assay: Inhibition of PRMT5 in human MV411 cells assessed as upregulation of Gas1 expression at 30 uM by SYBR green dye based RT-qPCR analysis; format: cell-based
Sequence of Protein arginine N-methyltransferase 5 (Homo sapiens) (O14744 whole entry): as the sequence (O14744 whole entry) above

In the case of `COc1ccc(Cl)cc1C(=O)Nc1nc(-c2ccc(C)c(C)c2)cs1`, the inhibition [1] is reported as 3.5%.
`OC(CNCc1c(OCc2ccccc2)ccc2ccccc12)c1ccccc1` (configuration not stated) was tested, and the IC50 (PRMT5/MEP50 complex [2]) was 2.8 µM.
`COc1ccc(-c2csc(NC(=S)NC(=O)c3ccc(C(C)(C)C)cc3)n2)cc1Br` showed an inhibition [1] of 9%.
Compound `Cc1ccc(C)c(-c2csc(Nc3ccc(O)c(C(=O)O)c3)n2)c1` has an IC50 (PRMT5/MEP50 complex [3]) of 35 µM, an inhibition [1] of 80% and an inhibition [4] of over 50%.
Work on `COc1ccc(-c2csc(Nc3ccc(C)c(Cl)c3)n2)cc1F` yielded an inhibition [1] of 26.4%.
`COc1cc(Nc2nc(-c3cc(C)ccc3C)cs2)c(OC)cc1Cl` showed an inhibition [1] of 24%.
In the case of `Cc1cc(-c2csc(Nc3ccc(O)c(C(=O)O)c3)n2)ccc1F`, the IC50 (PRMT5/MEP50 complex [3]) is reported as 22 µM and the inhibition [1] is reported as 71%.
Work on `CCCOc1ccc(Nc2nc(-c3cc4cc(OC)ccc4oc3=O)cs2)cc1` yielded an inhibition [1] of 7%.
`COc1ccc(Nc2nc(-c3ccc(OCc4ccc([N+](=O)[O-])cc4)cc3)cs2)cc1` was tested, and the inhibition [1] was 0%.
`CCOc1ccccc1Nc1nc(-c2cc3cc(OC)ccc3oc2=O)cs1` gave an inhibition [1] of 0%.
Work on `O=C(O)COc1ccc(Br)cc1-c1csc(Nc2ccc(Br)cc2)n1` yielded an IC50 (PRMT5/MEP50 complex [3]) of 44 µM and an inhibition [1] of 61%.
`COc1ccc(-c2csc(NC(=O)c3ccccc3Cl)n2)cc1C` gave an inhibition [1] of 3.5%.
For `COc1ccc(-c2csc(NC3=CS(=O)(=O)c4ccccc43)n2)cc1OC`, the inhibition [1] was 21%.
`COc1ccc(-c2csc(Nc3ccc(Cl)c(Cl)c3)n2)cc1` showed an inhibition [1] of 28.1%.
For `NC(=O)N/N=C/c1ccc(-c2ccc(Cl)cc2)o1`, the IC50 (PRMT5/MEP50 complex [5]) was 0.57 µM.
Compound `COc1ccc(Br)cc1C(=O)NC(=S)Nc1nc(-c2ccccc2)cs1` has an inhibition [1] of 8%.
`COc1ccc(-c2csc(Nc3ccc4c(c3)OCO4)n2)cc1Br` gave an inhibition [1] of 25%.
Work on `COc1ccc(Nc2nc(-c3ccc(OCc4ccc(Br)cc4)cc3)cs2)cc1` yielded an inhibition [1] of 0%.
Work on `CCOc1ccc(-c2csc(Nc3ccc(Cl)cc3)n2)cc1[N+](=O)[O-]` yielded an inhibition [1] of 25%.
`COc1ccc(Nc2nc(-c3cc4ccccc4o3)cs2)cc1` was tested, and the inhibition [1] was 10%.
`COc1ccc(-c2csc(Nc3ccc(O)c(C(=O)O)c3)n2)cc1C` was tested, and the IC50 (PRMT5/MEP50 complex [3]) was 14 µM, the inhibition [1] was 95% and the IC50 [6] was over 100 µM. The IC50 [7] was over 100 µM, the EC50 (MV4-11) was 22.5 µM and the inhibition [8] was “Active”.
`COc1ccc(OC)c(Nc2nc(-c3ccc4ccccc4c3)cs2)c1` showed an inhibition [1] of 23%.
Work on `CCN(CC)CCCNC(=O)c1ccc(OC)c([N+](=O)[O-])c1` yielded an IC50 (PRMT5/MEP50 complex [3]) of 42 µM and an inhibition [4] of over 50%.
In the case of `COc1cc(Br)c(Br)c(/C=N/c2cccc(-c3nc4ccccc4[nH]3)c2)c1O`, the IC50 (PRMT5/MEP50 complex [3]) is reported as 48 µM and the inhibition [4] is reported as over 50%.
`COc1ccc(OC)c(Nc2nc(-c3ccc(Cl)cc3Cl)cs2)c1` showed an inhibition [1] of 20%.
For `CCOc1cc(C(=O)Nc2nc(-c3ccc(C)cc3C)cs2)cc(OCC)c1OCC`, the inhibition [1] was 0%.
For `CC[n+]1c(-c2ccccc2)csc1Nc1ccc(O)c(C(=O)O)c1`, the inhibition [1] was 7%.
With `COc1cccc(Nc2nc(-c3ccc(OC)c(Br)c3)cs2)c1` the inhibition [1] was 27.4%.
In the case of `COc1ccccc1Nc1nc(-c2cc3cc(Br)ccc3oc2=O)cs1`, the inhibition [1] is reported as 9%.
Work on `COc1ccccc1Nc1nc(-c2ccc3ccccc3c2)cs1` yielded an inhibition [1] of 6%.
`COc1cc(Cl)c(OC)c(Nc2nc(-c3ccc(C)cc3)cs2)c1` showed an inhibition [1] of 33%.
